This is an account of results in article PMC9415608, “Design, Synthesis and Biological Investigation of 2-Anilino Triazolopyrimidines as Tubulin Polymerization Inhibitors with Anticancer Activities” (Pharmaceuticals, 2022).

Usually IC50 stands for the concentration that gives 50% inhibition. In general, melting point refers to the temperature of the solid-liquid transition.

Like-named read-outs stand apart in the source and are kept apart here. A value given as a limit tells only on which side of the number the result lay.

Data set [1] concerns cancer cell lines. Conditions: antiproliferative agent; read-out: IC50, range; cited from earlier work.
Data set [2] has as its system MDA-MB-231. Description: In vitro cell growth inhibition, resazurin viability assay. Format: cell-based, human. The following applies: Homo sapiens, MDA-MB-231; 72 h, resazurin; mean ± SE. As to the method:
(§1) All the cell lines used in this paper were of human origin and purchased from the American Type Culture Collection (ATCC, Manassas, VA, USA). Colon adenocarcinoma (HT-29), non-small cell lung carcinoma (A549), cervix carcinoma (HeLa) and breast adenocarcinoma (MDA-MB-231) cells were grown in RPMI (HT29) or DMEM (A549, HeLa, MDA-MB-231) medium (Gibco, Milano, Italy). Both media were supplemented with 115 units/mL of penicillin G (Gibco, Milano, Italy), 115 μg/mL of streptomycin (Invitrogen, Milano, Italy) and 10% fetal bovine serum (Invitrogen, Milano, Italy). All cell lines were grown at 37 °C in a humidified 5% CO2 atmosphere. The cells were grown in 2 mL of complete medium.
(§2) Stock solutions were prepared for each compound by dissolving in DMSO at the final concentration of 10 mM.
(§3) The cells were seeded in 96-well plates at the appropriate density for each cell line. The respective cell line densities used for the antiproliferative assay were HeLa and HT29 5000 cells/well, A549 4000 cells/well and MDA-MB-231 7000 cells/well. The total volume of medium was 100 µL. After 24 h, the cells were treated by performing serial 5-fold dilutions of the tested compounds starting from a concentration of 10 μM. All experimental conditions were tested in triplicate for statistical analysis. After 72 h of incubation, 10 μL of 100 μg/mL resazurin solution was added to each well and the plate was re-incubated for 3–4 h. The fluorescence of the wells in each plate was monitored using a Spark 10M spectrophotometer (Tecan Group Ltd., Mannedorf, Switzerland) with a 535 nm excitation wavelength and a 600 nm emission wavelength.

The test system of data set [3] is HeLa. Described as above. Format: cell-based, human. The following applies: Homo sapiens; 72 h, resazurin; mean ± SE. How it is done:
as §1, §2, §3
In general terms: The colour change of resazurin is a common sign of viable cells or microbes.

For data set [4], the system named is MDA-MB-231, HeLa, A549 and HT-29 cancer cell lines. Description: Antiproliferative activity stated across the panel of cancer cell lines. Format: cell-based, human. The following applies: for IC50: Homo sapiens; for fold reduction in antiproliferative activity relative to 3d: range over cell lines. How it is done:
as §1, §2, §3

Data set [5] deals with Bovine brain tubulin. Kind of data set: Inhibition of tubulin polymerization (turbidimetric assembly assay). The following applies: tubulin at 10 μM, 20 min incubation; read-out: Tubulin Assembly IC50 ± SD. Format: biochemical. As to the method:
(§4) Bovine brain tubulin was purified as described previously. To evaluate the effects of the compounds on tubulin assembly in vitro [80], varying concentrations were preincubated with 10 μM tubulin in 0.8 M monosodium glutamate (pH 6.6) at 30 °C and the reaction mixtures then cooled to 0 °C. After addition of GTP, the mixtures were transferred to 0 °C cuvettes in Beckman Coulter (Brea, CA, USA) DU-7400/DU-7500 recording spectrophotometers equipped with electronic temperature controllers and warmed to 30 °C, and the assembly of tubulin was observed turbidimetrically. […] Inhibition of colchicine binding to tubulin was measured as described before, except that the reaction mixtures contained 0.5 μM tubulin and 5 μM each of [^3H]colchicine and test compound. Only one DEAE-cellulose filter was used per sample, and filtration was by gravity.
(§5) Bovine brain tubulin (see ref. [79] for details of purification) was used to examine effects on tubulin polymerization and colchicine binding. Briefly, in the polymerization experiments, different compound concentrations were preincubated with 10 µM tubulin for 15 min at 30 °C and cooled on ice. After GTP was added to each reaction mixture, the samples were transferred to 0 °C cuvettes in recording spectrophotometers with electronic temperature controllers. The temperature was raised to 30 °C over about 30 s, and turbidity development was followed for 20 min at 350 nm. […] In the current studies, [^3H]colchicine (from American Radiolabeled Corp., St. Louis, MO) binding was measured after 10 min at 37 °C. Reaction mixtures contained 0.5 µM tubulin and 5.0 µM each of the [^3H]colchicine and the potential inhibitor, and a single DEAE-cellulose filter was used for each sample, with gravity filtration.

Data set [6] has as its system Bovine brain tubulin. Kind of data set: Inhibition of [3H]colchicine binding to tubulin. The following applies: tubulin 0.5 µM, [3H]colchicine 5 µM, tested compound 5 µM. How it is done:
as §4, §5

The test system of data set [7] is tubulin. Also noted: method as in PMID 25025853. The following applies: read-out: IC50 inhibition of tubulin polymerization; cited from earlier work.
For data set [8], the system named is A549. Kind of data set: In vitro cell growth inhibition, resazurin viability assay. Format: cell-based, human. The following applies: Homo sapiens, A549; 72 h, resazurin; mean ± SE. How it is done:
as §1, §2, §3

Data set [9] relates to HT29. The description is as above. The data set is classed as cell-based, human. Conditions: Homo sapiens, HT-29; 72 h, resazurin; mean ± SE. How it is done: as §1, §2, §3
The subject of data set [10] is HeLa cells. The following applies: read-out: IC50 antiproliferative activity against HeLa cells; cited from earlier work.
The test system of data set [11] is panel of four cancer cell lines. The following applies: read-out: IC50 values, range; cited from earlier work.
Data set [12] concerns tubulin. The following applies: cited from earlier work.
Data set [13] deals with HCT-116 cancer cell line. Further details: method as in PMID 35196595. Conditions: read-out: IC50 antiproliferative activity against HCT-116; cited from earlier work.
Data set [14] has as its system tubulin. Further details: method as in PMID 35196595. The following applies: read-out: IC50 tubulin polymerization inhibitor; cited from earlier work.
The mark [15] stands for this setting: on HeLa, A549 and HT-29 cancer cells, read-out: IC50 values, range.

Consider `COc1cc(Nc2cc(C)nc3nc(Nc4ccc(C)cc4)nn23)cc(OC)c1OC` [5-methyl-2-(p-toluidino)-7-(3′,4′,5′-trimethoxyanilino)-[1,2,4]triazolo[1,5-a]pyrimidine], for which the IC50 in [1] was 0.52 to 1.55 µM.
As to `COc1ccc(/C=C\c2cc(OC)c(OC)c(OC)c2)cc1O` [CA-4, combretastatin A-4, reference compound], the IC50 in data set [2] is 0.005 ± 0.002 µM; in data set [3], 0.004 ± 0.001 µM; in data set [4] (against MDA-MB-231 and HeLa cancer cell lines, read-out: IC50, range), 0.004 to 0.005 µM; in [5] it was […]. Besides, the “Colchicine Binding % Inhibition ± SD” value in data set [6] is listed as 98 ± 2%.
In the case of `COc1cc(C(=O)n2nc(Nc3ccc(C)cc3)nc2N)cc(OC)c1OC` [Compound 2a], the IC50 in [7] was 0.75 µM.
For the compound `COc1cc(-c2ccnc3nc(Nc4ccc(C)c(C)c4)nn23)cc(OC)c1OC` [Compound 3f, N-(3,4-Dimethylphenyl)-7-(3,4,5-trimethoxyphenyl)-[1,2,4]triazolo[1,5-a]pyrimidin-2-amine], the melting point is 189 to 190 °C. The same compound gave an IC50 in data set [2] above 10 µM. Moreover, the IC50 in [8] came to 0.16 ± 0.045 µM. The compound further gave an IC50 in data set [9] of 0.16 ± 0.041 µM. In data set [3], this compound had an IC50 of 0.067 ± 0.0023 µM. Besides, the IC50 in data set [4] (setting [15]) is 0.067 to 0.16 µM. The “fold reduction in antiproliferative activity relative to 3d” value in [4] is 2–5 fold. For the same compound, in data set [5], the IC50 turned out to be 0.8 ± 0.1 µM. Moreover, the “Colchicine Binding % Inhibition ± SD” value in data set [6] amounted to 18 ± 5%.
The compound `CCc1ccc(Nc2nc3nccc(-c4cc(OC)c(OC)c(OC)c4)n3n2)cc1` [Compound 3h, N-(4-Ethylphenyl)-7-(3,4,5-trimethoxyphenyl)-[1,2,4]triazolo[1,5-a]pyrimidin-2-amine] yielded a melting point of 199 to 200 °C. Further, the IC50 in data set [2] is above 10 µM. Also, in data set [8], the IC50 was 0.2 ± 0.044 µM. The compound further came in with an IC50 in [9] of 0.16 ± 0.033 µM. The same compound had an IC50 in data set [3] of 0.24 ± 0.074 µM. The IC50 in data set [4] (setting [15]) is 0.16 to 0.24 µM. Besides, the “fold reduction in antiproliferative activity relative to 3d” value in [4] is on record as 5–7 fold. In data set [5], the IC50 was 1.9 ± 0.2 µM. Further, the “Colchicine Binding % Inhibition ± SD” value in [6] is reported as 21 ± 0.9%.
As to `COc1cccc(Nc2nc3nccc(-c4cc(OC)c(OC)c(OC)c4)n3n2)c1` [Compound 3l, N-(3-Methoxyphenyl)-7-(3,4,5-trimethoxyphenyl)-[1,2,4]triazolo[1,5-a]pyrimidin-2-amine], the melting point fell in the range of 165 to 166 °C. The same compound came in with an IC50 in data set [2] of 1.76 ± 0.9 µM. The compound further came in with an IC50 in [8] of 0.76 ± 0.18 µM. Further, inhibition in data set [9] was half-maximal at 0.76 ± 0.18 µM (IC50). The compound also showed an IC50 in data set [3] of 0.44 ± 0.08 µM. Also, the IC50 in data set [5] is 2.2 ± 0.2 µM. In addition, in [6], the “Colchicine Binding % Inhibition ± SD” value is 39 ± 5%.
As to `COc1ccc(-c2nc3nccc(-c4cc(OC)c(OC)c(OC)c4)n3n2)cc1O` [Compound 4], the IC50 in [10] is 0.06 µM; in data set [11], 3 to 18 µM. Besides, in [12], the “fold greater potency than CA-4, inhibition of tubulin assembly” value is 3 fold.
In the case of `COc1cc(-c2cc(-c3ccc(Cl)cc3)nc3nc(N)nn23)cc(OC)c1OC` [Compound 5], the results for the IC50 in data set [13] and in data set [14] were 0.53 µM and 3.84 µM, respectively.
